Measured values from patent publication US10519098B2, “Aromatic derivatives as anti-malarial” (Council of Scientific & Industrial Research, priority 2014, dated 2019).
Values joined by “and” are separate entries in the source; they are usually repeats but may differ in a detail not shown here. Equal values may be shown once. Read-outs that look alike come from different tables or passages of the source.

Key:
[1] = tested on: Chloroquine-sensitive (3D7) strain of P. falciparum; experiment: Malaria SYBR Green I-based fluorescence (MSF) assay, 3D7 strain; type: cell-based; details: Plasmodium falciparum
Protocol: (§1) The stock (5 mg/mL or 10 mM) solutions of extracts were prepared in DMSO and required dilutions were made in culture medium.
(§2) Two-fold serial dilutions of test samples were made in 96 well plates and incubated with 1.0% parasitized cell suspension containing 0.8% parasitaemia (Asynchronous culture with more than 80% ring stages). The plates were incubated at 37° C. in CO2 incubator in an atmosphere of 5% CO2 and air mixture. 72 hours later 100 μL of lysis buffer containing 2× concentration of SYBR Green-I (Invitrogen) was added to each well and incubated for one hour at 37° C. The plates were examined at 485±20 nm of excitation and 530±20 nm of emission for relative fluorescence units (RFUs) per well using the fluorescence plate reader (FLX800, BIOTEK). IC50 values were obtained by Logit regression analysis of dose response curves (Singh et al. 2011).

[2] = tested on: Chloroquine-resistant (K1) strain of P. falciparum; experiment: Malaria SYBR Green I-based fluorescence (MSF) assay, K1 strain; type: cell-based; details: Plasmodium falciparum
Protocol: as §1, §2

[3] = in vitro; details: monkey
Protocol: (§3) The cells were incubated with test sample dilutions for 72 h and MTT was used as reagent for detection of cytotoxicity. Podophyllotoxin (SIGMA) was used as the standard reference drug.

[4] = tested on: Vero cell line (C1008; Monkey kidney fibroblast); experiment: in vitro; details: 72 h
Protocol: as §3

[5] = tested on: chloroquine resistant P. yoelii (N-67); experiment: In vivo evaluation in P. yoelii (N-67) Swiss mice model; details: one value per mouse
Protocol: The molecules were tested at 100 mg/kg dose through intraperitoneal route. The mice received infective inoculum containing 1×10^5 parasites on day 0 and then received four doses of test compound on day 0-3 once daily. Five infected mice were used for each molecule and five infected mice were kept as untreated control. Arteether (5 mg/kg, ×4, intramuscular) was used as positive control. Thin blood smear from tail blood of each mouse was prepared on day 4. The blood smears were fixed in methanol, stained with Giemsa's stain and examined under the light microscope (100×oil immersion). At least 10-15 fields per smear were scanned to obtain percent parasitaemia in treated as well as untreated mice. If significant suppression in percent parasitaemia is observed on day 4, the monitoring continues up to day 28.

[6] = P. falciparum 3D7, 72 hours incubation, read-out: IC50 against 3D7
[7] = P. falciparum K1, 72 hours incubation, read-out: IC50 against K1
[8] = 3D7, range given for listed compounds, read-out: IC50 values against 3D7 culture
[9] = K1, range given for listed compounds, read-out: IC50 values against K1 culture

Structure (SMILES) | IC50 [1, 6] [µM] | IC50 [2, 7] [µM] | CC50 at 72 h [3] [µM] | melting point [°C] | CC50 [4] [µM] | IC50 [1, 8] [µM] | IC50 [2, 9] [µM] | % parasitaemia on day 4 in 5 individual mice ([5]; 100 mg/kg intraperitoneal, four doses day 0-3 once daily) | % parasitaemia on day 4 in 5 individual mice ([5]; positive control, 5 mg/kg ×4 intramuscular) [%]
COc1ccc([C@@H](COC(=O)/C=C/c2ccccc2)NC(=O)/C=C/c2ccccc2)cc1OC [Compound 55, (S)-2-cinnamamido-2-(3,4-dimethoxyphenyl)ethyl cinnamate] | > 10 | > 10 | 55.6 | 117 to 120 |  |  |  |  | 
COc1ccc([C@@H](CNC(=O)CCc2ccccc2)OC(=O)CCc2ccccc2)cc1OC [Compound 43, (S)-1-(3,4-dimethoxyphenyl)-2-(3-phenylpropanamido)ethyl 3-phenyl propanoate] | 2.86 | > 10 | 39.3 | 82 to 84 |  |  |  |  | 
O=C(/C=C/c1ccccc1)OC[C@@H](OC(=O)/C=C/c1ccccc1)c1ccc2ccccc2c1 [Compound 53, (S)-1-(naphthalen-2-yl)ethane-1,2-diyl (2E,2′E)-bis(3-phenylacrylate)] | > 10 | > 10 |  | 120 to 121 | > 200 |  |  |  | 
COc1ccc([C@@H](CNC(=O)/C=C/c2ccc(O[Si](C)(C)C(C)(C)C)cc2)OC(=O)/C=C/c2ccc(O[Si](C)(C)C(C)(C)C)cc2)cc1OC [Compound 48, (S)-2-((E)-3-(4-((tert-butyldimethylsilyl)oxy)phenyl)acrylamido)-1-(3,4-dimethoxyphenyl)ethyl (E)-3-(4-((tert-butyldimethylsilyl)oxy)phenyl)acrylate] | 7.92 | 3.37 | 40.8 | 63 to 65 |  |  |  |  | 
COc1ccccc1[C@@H](CNC(=O)/C=C/c1ccccc1)OC(=O)/C=C/c1ccccc1 [Compound 9, (S)-2-cinnamamido-1-(2-methoxyphenyl)ethyl cinnamate] | > 5 | > 5 | 77.8 | 112 to 114 |  |  |  |  | 
O=C(/C=C/c1ccccc1)NC[C@@H](OC(=O)/C=C/c1ccccc1)c1ccccc1 [Compound 25, (S)-2-cinnamamido-1-phenylethyl cinnamate] | 3.85 | > 10 | 31.7 | 181 to 183 |  |  |  |  | 
COc1ccc([C@@H](COC(=O)/C=C/c2cc(OC)c(OC)c(OC)c2)OC(=O)/C=C/c2cc(OC)c(OC)c(OC)c2)cc1OC [Compound 56, (S)-1-(3,4-dimethoxyphenyl)ethane-1,2-diyl(2E,2′E)-bis(3-(3,4,5-trimethoxyphenyl)acrylate)] | 2.34 | 2.62 | 55.7 |  |  | 2 to 7 | 1.5 to 4 | 06.06% and 08.31% and 16.23% and 13.92% and 11.13% | 
CCO[C@H]1O[C@@H]2O[C@@]3(C)CC[C@H]4[C@H](C)CC[C@@H]([C@H]1C)[C@@]24OO3 [Arteether, reference compound] |  |  |  |  |  |  |  |  | 0.0
O=C(/C=C/c1ccccc1)OC[C@H](OC(=O)/C=C/c1ccccc1)c1ccc2ccccc2c1 [Compound 54, (R)-1-(naphthalen-2-yl)ethane-1,2-diyl (2E,2′E)-bis (3-phenylacrylate)] | > 10 | 2.15 |  | 123 to 124 | 181 |  |  |  | 
COc1ccc([C@@H](CNC(=O)/C=C/c2ccccc2)OC(=O)CCc2ccccc2)cc1OC [Compound 49, (S)-2-cinnamamido-1-(3,4-dimethoxyphenyl)ethyl 3-phenylpropanoate] | > 10 | > 10 |  | 101 to 103 | 36.9 |  |  |  | 
COc1cc([C@@H](CNC(=O)/C=C/c2ccccc2)OC(=O)/C=C/c2ccccc2)cc(OC)c1OC [Compound 5, (S)-2-cinnamamido-1-(3,4,5-trimethoxyphenyl)ethyl cinnamate] | 6.69 | 3.64 | 66.7 | 126 to 128 |  | 2 to 7 | 1.5 to 4 |  | 
CCCC(=O)NC[C@@H](OC(=O)/C=C/c1ccccc1)c1ccc(OC)c(OC)c1 [Compound 51, (S)-2-butyramido-1-(3,4-dimethoxyphenyl)ethyl cinnamate] | > 10 | > 10 |  | 93 to 94 | 42.4 |  |  |  | 
CCCC(=O)O[C@H](CNC(=O)/C=C/c1ccccc1)c1ccc(OC)c(OC)c1 [Compound 52, (S)-2-cinnamamido-1-(3,4-dimethoxyphenyl)ethyl butyrate] | > 10 | > 10 |  |  | 29.9 |  |  |  | 
O=C(/C=C/c1ccccc1)NC[C@H](OC(=O)/C=C/c1ccccc1)c1ccccc1 [Compound 26, (R)-2-cinnamamido-1-phenylethyl cinnamate] | 4.72 | > 10 | 63.9 | 183 to 185 |  |  |  |  | 
COc1cc(/C=C/C(=O)OC[C@@H](OC(=O)/C=C/c2cc(OC)c(OC)c(OC)c2)c2cc(OC)c(OC)c(OC)c2)cc(OC)c1OC [Compound 57, (S)-1-(3,4,5-trimethoxyphenyl)ethane-1,2-diyl(2E,2′E)-bis(3-(3,4,5-trimethoxyphenyl)acrylate)] | 6.29 | 2.23 | 47.4 | 61 to 62 |  | 2 to 7 | 1.5 to 4 |  | 
COc1ccc([C@H](CNC(=O)c2ccccc2)OC(=O)c2ccccc2)cc1OC [Compound 40, (R)-2-benzamido-1-(3,4-dimethoxyphenyl) ethyl benzoate] | 3.66 | > 10 | 104 | 128 to 130 |  |  |  |  | 
Cc1ccc([C@@H](COC(=O)/C=C/c2ccccc2)OC(=O)/C=C/c2ccccc2)cc1 [Compound 31, (S)-1-(p-tolyl) ethane-1,2-diyl (2E,2′E)-bis(3-phenylacrylate)] | > 5 | > 5 | > 200 | 103 to 105 |  |  |  |  | 
Cc1ccc([C@H](CNC(=O)/C=C/c2ccccc2)OC(=O)/C=C/c2ccccc2)cc1 [Compound 30, (R)-2-cinnamamido-1-(p-tolyl) ethyl cinnamate] | 6.97 | > 10 | 49.4 | 139 to 141 |  |  |  |  | 
Cc1ccc([C@@H](CNC(=O)/C=C/c2ccccc2)OC(=O)/C=C/c2ccccc2)cc1 [Compound 29, (S)-2-cinnamamido-1-(p-tolyl) ethyl cinnamate] | 6.77 | > 10 | 141 | 139 to 140 |  |  |  |  | 
COc1ccc([C@@H](CNC(=O)CCc2ccccc2)OC(=O)/C=C/c2ccccc2)cc1OC [Compound 50, (S)-1-(3,4-dimethoxyphenyl)-2-(3-phenylpropanamido)ethylcinnamate] | > 10 | > 10 |  | 112 to 114 | 44.3 |  |  |  | 
COc1cccc([C@H](CNC(=O)/C=C/c2ccccc2)OC(=O)/C=C/c2ccccc2)c1OC [Compound 22, (R)-2-cinnamamido-1-(2,3-dimethoxyphenyl)ethyl cinnamate] | > 5 | > 5 | 194 | 105 to 107 |  |  |  |  | 
COc1ccc([C@H](CNC(=O)CCc2ccccc2)OC(=O)CCc2ccccc2)cc1OC [Compound 44, (R)-1-(3,4-dimethoxyphenyl)-2-(3-phenylpropanamido)ethyl 3-phenyl propanoate] | 5.86 | > 10 | 73.2 | 77 to 78 |  |  |  |  | 
O=C(/C=C/c1ccccc1)NC[C@@H](OC(=O)/C=C/c1ccccc1)c1ccc2c(c1)OCO2 [Compound 33, (S)-1-(benzo[d][1,3]dioxol-5-yl)-2-cinnamamidoethyl cinnamate] | > 5 | > 5 | 190 | 186 to 190 |  |  |  |  | 
COc1ccccc1[C@H](CNC(=O)/C=C/c1ccccc1)OC(=O)/C=C/c1ccccc1 [Compound 10, (R)-2-cinnamamido-1-(2-methoxyphenyl)ethyl cinnamate] | > 5 |  | 117 | 112 to 114 |  |  |  |  | 
COc1ccc([C@H](CNC(=O)/C=C/c2ccccc2)OC(=O)/C=C/c2ccccc2)cc1OC [Compound 2, (R)-2-cinnamamido-1-(3,4-dimethoxyphenyl)ethyl cinnamate] | > 5 |  | 66.7 | 123 to 125 |  |  |  |  | 
COc1ccc([C@@H](CNC(=O)c2ccccc2)OC(=O)c2ccccc2)cc1OC [Compound 39, (S)-2-benzamido-1-(3,4-dimethoxyphenyl) ethyl benzoate] | 6.67 | > 10 | 8.16 | 129 to 131 |  |  |  |  | 
